ChEMBL document CHEMBL5226340, “Chemical Biology of Sortase A Inhibition: A Gateway to Anti-infective Therapeutic Agents” (J Med Chem, 2021)
pIC50, pKi: −log10 of the molar value. ≈ marks a conversion by molar mass, not a printed value. One block for each compound: values may come before it. Residues, ends and D or L forms follow the SMILES beside them.

What was measured:
Sortase A [1] = target: T1, Sortase A (Staphylococcus aureus, UniProt Q9S446); test: Inhibition of recombinant Staphylococcus aureus SrtA deltaN59 using Dabcyl-[…]-Edans as substrate preincubated for 20 mins followed by substrate addition and measured after 1 hr by fluorescence based analysis
T1 sequence (Q9S446 whole entry): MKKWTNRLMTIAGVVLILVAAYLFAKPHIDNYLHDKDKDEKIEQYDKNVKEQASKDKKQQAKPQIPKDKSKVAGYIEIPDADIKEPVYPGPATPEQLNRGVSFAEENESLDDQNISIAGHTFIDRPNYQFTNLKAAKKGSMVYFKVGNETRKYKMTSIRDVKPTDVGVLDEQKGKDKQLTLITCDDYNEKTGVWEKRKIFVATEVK

Sortase A [2] = target: T1, Sortase A; test: Inhibition of Staphylococcus aureus SrtA catalytic domain (60 to 206 residues) using Abz-LPETGDap(Dnp)-NH2 as substrate preincubated for 1 hr followed by substrate addition and measured immediately by FRET assay
Staphylococcus aureus [3] = test: Antibacterial activity against Staphylococcus aureus; format: functional
Sortase A [4] = target: T1, Sortase A; test: Inhibition of Staphylococcus aureus SrtA
Sortase A [5] = target: T1, Sortase A; test: Inhibition of Staphylococcus aureus ATCC 6538p SrtA using dabcyl-LPETG-edans as substrate incubated for 1 hr by fluorometric analysis
[6] = target: T2, Sortase A (Staphylococcus aureus) (UniProt Q9S446); test: Binding affinity to Staphylococcus aureus SrtA assessed as kinact/ki
T2 sequence (whole entry): T1 sequence (Q9S446 whole entry)

Sortase A [7] = target: T1, Sortase A; test: Inhibition of C-terminal 6His-tagged recombinant Staphylococcus aureus SrtA with 1 to 59 residues truncated from N-terminus expressed in Escherichia coli BL21 (DE3) using dabcyl-QALPETGEE-edans as substrate preincubated for 1 hr followed by substrate addition and measured for 1 hr by FRET assay
Sortase A [8] = target: T1, Sortase A; test: Inhibition of Staphylococcus aureus SrtA (60 to 206 residues) using Abz-LPETG-Dap(Dnp)-NH2 as substrate incubated for 1 hr by FRET assay
Sortase A [9] = target: T1, Sortase A; test: Inhibition of Staphylococcus aureus SrtA using EDANS-Dabcyl as substrate by FRET assay
Sortase A [10] = target: T1, Sortase A; test: Inhibition of recombinant Staphylococcus aureus ATCC 6538p SrtA expressed in Escherichia coli TOP10 using Dabcyl-QALPETGEE-Edans as substrate incubated for 1 hr by fluorometric analysis
Sortase A [11] = target: T1, Sortase A; test: Inhibition of Staphylococcus aureus USA 300 SrtA expressed in Escherichia coli BL21 (DE3) cells using Dabcyl-QALPETGEE-Edans as substrate incubated for 1 hr by FRET assay
Staphylococcus aureus [12] = test: Inhibition of biofilm formation in Staphylococcus aureus ATCC 29213 incubated for 24 hrs by crystal violet staining based analysis; format: functional, organism-based; conditions: ATCC 29213, 24 h
Staphylococcus aureus [13] = test: Antibacterial activity against Staphylococcus aureus Newman assessed as inhibition of bacterial growth by spectrophotometer method; format: functional
Sortase A [14] = target: T1, Sortase A; test: Inhibition of Staphylococcus aureus SrtA with 24 residues truncated from N-terminus using Abz-LPATG-Dap as substrate
Staphylococcus aureus [15] = test: Antibacterial activity against Staphylococcus aureus SA113 by microbroth dilution assay; format: functional
Sortase A [16] = target: T1, Sortase A; test: Binding affinity to Staphylococcus aureus SrtA (60 to 206 residues) using Dabcyl-Gln-Ala-Leu-Pro-Glu-Thr-Gly-Glu-Glu-Edans as substrate incubated for 12 hrs by fluorescence based analysis
[17] = target: T2, Sortase A (Staphylococcus aureus); test: Binding affinity to Staphylococcus aureus SrtA (60 to 206 residues) using Dabcyl-Gln-Ala-Leu-Pro-Glu-Thr-Gly-Glu-Glu-Edans as substrate assessed as first order rate constant of inactivation incubated for 12 hrs by fluorescence based analysis
[18] = target: T2, Sortase A (Staphylococcus aureus); test: Binding affinity to Staphylococcus aureus SrtA (60 to 206 residues) using Dabcyl-Gln-Ala-Leu-Pro-Glu-Thr-Gly-Glu-Glu-Edans as substrate assessed as second order rate constant of inhibition, kinact/ki incubated for 12 hrs by fluorescence based analysis

SMILES: CC(C)C[C@H](N)C(=O)N1CCC[C@H]1C(=O)N[C@@H](CCCNC(=N)N)C(=O)N[C@@H](CC(=O)O)C(=O)N[C@@H](C)C(=O)O (H-LPRDA-OH)
pIC50 (Sortase A [1]): 4.97

SMILES: O=c1c(OCCCO)c(SSc2cnn(-c3ccccc3)c(=O)c2OCCCO)cnn1-c1ccccc1
pIC50 (Sortase A [2]): 6.08

SMILES: O=C(O)/C=C/c1ccc(O)c(O)c1 [CAFFEIC ACID]
MIC (Staphylococcus aureus [3]): > 5750 µM
pIC50 (Sortase A [4]): 3.07

SMILES: COc1ccc(-c2cc(=O)c3c(O)cc(O)cc3o2)cc1 [ACACETIN]
MIC (Staphylococcus aureus [3]): > 3600 µM
pIC50 (Sortase A [4]): 3.89

SMILES: O=c1c(OCCO)c(SSc2cnn(-c3cccc(F)c3)c(=O)c2OCCO)cnn1-c1cccc(F)c1
pIC50 (Sortase A [2]): 6.39

SMILES: CCOc1c(S)cnn(-c2ccccc2)c1=O
pIC50 (Sortase A [2]): 4.46

pIC50 (Sortase A [5]): 3.84
SMILES: C[C@H]1CC[C@H]2[C@@H](C=C[C@@](C)(O)[C@]2(C)C(=O)CCO)C1

MIC (Staphylococcus aureus [3]): > 1440 µM
Ratio [6]: 1.8 10^3/M/min
SMILES: COc1ccc(C(Nc2ccccn2)c2oc(CO)cc(=O)c2O)cc1 (stereo not given)

SMILES: CCn1nc(C)cc1C(=O)/C(=N/Nc1ccc(Cl)c(Cl)c1)C(=O)O
pIC50 (Sortase A [7]): < 3.70

SMILES: O=c1c(OCCCO)c(SSc2cnn(-c3cccc(F)c3)c(=O)c2OCCCO)cnn1-c1cccc(F)c1
pIC50 (Sortase A [2]): 7.70
Ratio [6]: 1.8 10^4/M/min

MIC (Staphylococcus aureus [3]): > 1580 µM
Ratio [6]: 2.4 10^3/M/min
SMILES: O=c1cc(CO)oc(C(Nc2ccccn2)c2cccc(F)c2)c1O (stereo not given)

SMILES: O=C(O)COc1ccccc1C1Nc2cccc3cccc(c23)N1
pIC50 (Sortase A [8]): 4.33

SMILES: O=C1N[C@H](c2c[nH]c3cc(Br)ccc23)CN=C1c1c[nH]c2ccccc12
pIC50 (Sortase A [9]): 4.08

SMILES: O=[N+]([O-])c1ccc(C2Nc3cccc4cccc(c34)N2)cc1
pIC50 (Sortase A [8]): 4.10

SMILES: CC(=O)/C(=N/Nc1ccc([N+](=O)[O-])cc1)C(=O)O
MIC (Staphylococcus aureus [3]): > 270 µM
pIC50 (Sortase A [7]): 4.24

SMILES: O=c1c(O)c(-c2cc(O)c(O)c(O)c2)oc2cc(O)cc(O)c12 [MYRICETIN]
pIC50 (Sortase A [10]): 4.36

SMILES: CCOc1c(SSc2cnn(-c3cccc(OC)c3)c(=O)c2OCC)cnn(-c2cccc(OC)c2)c1=O
pIC50 (Sortase A [2]): 6.21

pIC50 (Sortase A [11]): 4.62
SMILES: CCCC(=O)c1c(O)c(CC2=C(O)C(C)(C)C(=O)C(C(C)=O)=C2O)c(O)c(Cc2c(O)c(C(=O)CCC)c(O)c(C(C)C3=C(O)C(C)(C)C(=O)C(C(C)=O)=C3O)c2O)c1O (stereo not given)

SMILES: Cc1cc(C(=O)/C(=N/Nc2ccc(Cl)c(Cl)c2)C(=O)O)no1
pIC50 (Sortase A [7]): < 3.70
pIC50 (Staphylococcus aureus [12]): 6.10

SMILES: O=C(NCCSSCCNC(=O)/C(Cc1ccc(O)c(Br)c1)=N/O)/C(Cc1ccc(O)c(Br)c1)=N/O [PSAMMAPLIN A]
pIC50 (Sortase A [9]): 4.32
MIC (Staphylococcus aureus [13]): > 200 µg/mL

SMILES: COc1cc(/C=C/C(=O)O)ccc1O [FERULATE]
MIC (Staphylococcus aureus [3]): > 5750 µM
pIC50 (Sortase A [4]): 2.88

SMILES: Cc1cc(C(=O)/C(=N/Nc2c(F)cccc2F)C(=O)O)no1
MIC (Staphylococcus aureus [3]): > 200 µM
pIC50 (Sortase A [7]): 4.12
pIC50 (Staphylococcus aureus [12]): 4.54

SMILES: COc1c(O)c2c(c3c1O[C@@]1(O)C(C)(C)[C@H](C)O[C@@]31O)C(=O)C(C)=CC2=O
pIC50 (Sortase A [4]): 4.63

SMILES: CCOc1c(SSc2cnn(-c3cccc(F)c3)c(=O)c2OCC)cnn(-c2cccc(F)c2)c1=O
pIC50 (Sortase A [2]): 6.80

SMILES: O=c1c(OCCO)c(SSc2cnn(-c3ccccc3)c(=O)c2OCCO)cnn1-c1ccccc1
pIC50 (Sortase A [2]): 6.66

SMILES: O=C(/C=C/c1ccc(O)c(O)c1)O[C@@H]1C[C@](O)(C(=O)O)C[C@@H](O)[C@H]1O [CHLOROGENIC ACID]
pIC50 (Sortase A [9]): 4.02
MIC (Staphylococcus aureus [3]): 2900 µM (≈ 1030 µg/mL)

SMILES: c1cc(-c2nnc3sc(-c4ccc5[nH]cnc5c4)nn23)ccn1
pIC50 (Sortase A [14]): 4.77

Ratio [6]: 5.79 10^4/M/min
MIC (Staphylococcus aureus [15]): 7.74 µM (≈ 3.13 µg/mL)
SMILES: CCSSc1ccccc1C(=O)NCC(=O)NC12CC3CC(CC(C3)C1)C2

pKi (Sortase A [16]): 5.05
Kinact [17]: 4 10^-4/min
Kinact [18]: 0.74 M⁻¹ s⁻¹
Ratio [18]: 44.4 M⁻¹ min⁻¹
SMILES: CC(C)C[C@H](NC(=O)OCc1ccccc1)C(=O)N1CCC[C@H]1C(=O)N[C@@H](C)C(=O)N[C@@H](/C=C/S(=O)(=O)c1ccccc1)[C@@H](C)O
